These antisense oligonucleotides have a phosphorothioate backbone; sugars and methylation of C are not fully specified.
Further: test concentration or dose not given here.

The target in the first data set is AKT3. The settings on record: ASO.
In turn, GCCCTGAAAGCAATGATT gave a remaining target (mRNA or protein) (fraction of control) of 0.34.
The same measure, in the same setting: the value for ATTCTCTCCTCTTCTTGC was at least 1.
Still for that read-out and setting: for GGTTTAAGAGGAGGTACA the value was at least 1; for TCATTTCATACATGACAA, at least 1.
Sequence TTTCCTCTGGAGTATCTA yielded a remaining target (mRNA or protein) (fraction of control) of at least 1.
On the same count and under the same terms, for CTGAAGAGAGTGTTCGAG the value was at least 1.
As to GCGTTTATTTGGATCCTT, the remaining target (mRNA or protein) (fraction of control) is at least 1.
With CATCTTGAGGTTTCTCTT, the remaining target (mRNA or protein) (fraction of control) was at least 1.
The same measure, in the same setting: for TTGGCTTTGGTCGTTCTG the value was at least 1.
Consider TACTCCAGAGAAGAAACT, for which the remaining target (mRNA or protein) (fraction of control) was found to be 0.85.
On the same count and under the same terms, for TGTAGAAAGGTAACCTCC the value was 0.82.
Same read-out and setting: for TGTCCATTCTTCCCTTTC the value was at least 1; for AGCCTGGATAGCTTCTGT, at least 1; for TTCCATTAATATTAATTC, at least 1.
Sequence GTCCTGGTTGTAGAAAGG returned a remaining target (mRNA or protein) (fraction of control) of 0.58.
Still for that read-out and setting: for TTTGCATCTGAAGAGAGT the value was 0.77.
In turn, CAACCCCTAGGCCCCACC showed a remaining target (mRNA or protein) (fraction of control) of 0.16.
As for AACCTCCCACACATCATT, the remaining target (mRNA or protein) (fraction of control) was found to be 0.22.
The same measure, in the same setting: the value for ATTATCAATTTGTGAAGT was at least 1; that for GCCTCTGCAGTCTGTCTG was at least 1; that for ATCAAGAGCCCTGAAAGC was 0.29.
Take AAGGTAAATCCACATCTT: the remaining target (mRNA or protein) (fraction of control) was 0.66.
The sequence TAATTTCTTTTGCGTCAT returned a remaining target (mRNA or protein) (fraction of control) of at least 1.
On the same count and under the same terms, the value for GTCTCAGATGTTACTTGA was 0.71; that for GTAGTCCACTGGAGACAT was at least 1.
In turn, TGTTCGAGGAAATTTAAT had a remaining target (mRNA or protein) (fraction of control) of at least 1.
Still for that read-out and setting: the value for GTCTGCTACAGCCTGGAT was 0.92; that for TCTTCTTGCCTCTGCAGT was at least 1; that for CTCCACCAAGGCGTTTAT was 0.12.
The same measure, in the same setting: for TTTGTGAAGTTGGACTAC the value was at least 1; for CTAGGCCCCACCAGTCTA, 0.17.
GATCCTTTATCAAGAGCC registered a remaining target (mRNA or protein) (fraction of control) of 0.4.
The same measure, in the same setting: for CTGTTTTCATTAACTGGC the value was at least 1; for TGTTCTCTCTATAACAGT, 0.94; for AGAGAAGAAACTGTGTCT, at least 1.
Still for that read-out and setting: for ATTCTTCATCAAAATATC the value was at least 1.
Same read-out and setting: the value for CTACATGAAATGTTCTCT was at least 1; that for ACAATTCATTCTCTCCTC was at least 1; that for GCGTCATCTGGTCCTCCA was 0.26.
In turn, TAGTATCTGTCTCAGATG came in with a remaining target (mRNA or protein) (fraction of control) of 0.7.
AAATGTGTTTGGCTTTGG had a remaining target (mRNA or protein) (fraction of control) of at least 1.
The same measure, in the same setting: the value for ATATACATCTTGCCAGTT was 0.87; that for TCATACATGACAACCCCT was 0.13; that for CTGCTCGGCCATAGTCAT was 0.19.
Still for that read-out and setting: for GATTATAAATGTGTTTGG the value was at least 1.
Still for that read-out and setting: for GTAATAGTCTGAGCTGTA the value was 0.88; for GAGACATCTGATTATAAA, at least 1; for TTGGTCGTTCTGTTTTCA, at least 1.
AGTCTACTGCTCGGCCAT: the remaining target (mRNA or protein) (fraction of control) was determined as 0.21.
In the case of TCTATAACAGTAGTCCAC, the remaining target (mRNA or protein) (fraction of control) was at least 1.

For another data set, the target named is TRADD. The settings on record: ASO.
GAGGCAGAATCCCCAATG showed a remaining target (mRNA or protein) (fraction of control) of at least 1.
The same measure, in the same setting: the value for AATAGCCGCAGAAGGAAC was 0.83.
The same measure, in the same setting: the value for AGTTGCAGCGGCACCGAG was at least 1; that for TCTATCAAAGTACCTGAG was at least 1; that for CGCAGCGCATCCTCCAGC was 0.99.
In turn, TCACTACAGGCTGACCCT had a remaining target (mRNA or protein) (fraction of control) of 0.74.
In the case of TCTGTTGGTCCTTCAGGC, the remaining target (mRNA or protein) (fraction of control) is at least 1.
In the case of TGGCTGCACCCCTGGTCT, the remaining target (mRNA or protein) (fraction of control) was at least 1.
Regarding GGGCAGGTGGCGGCGGCG, the remaining target (mRNA or protein) (fraction of control) amounted to 0.7.
